PMC12009420, “Dynamically chiral phosphonic acid-type metallo-β-lactamase inhibitors” (Communications Chemistry, 2025)
Read-outs that look alike come from different tables or passages of the source.

Experiments:
GIM-1 [1] = biological target: T1, GIM-1 (Pseudomonas aeruginosa, UniProt Q704V1); assay: Enzymatic metallo-β-lactamase assay on purified GIM-1; type: biochemical; conditions: approximated from Dixon plots (1/v vs [I]) at one constant substrate concentration; ± SE; read-out: Estimated inhibition constant Ki GIM-1
T1 sequence (Q704V1 entry or part of it): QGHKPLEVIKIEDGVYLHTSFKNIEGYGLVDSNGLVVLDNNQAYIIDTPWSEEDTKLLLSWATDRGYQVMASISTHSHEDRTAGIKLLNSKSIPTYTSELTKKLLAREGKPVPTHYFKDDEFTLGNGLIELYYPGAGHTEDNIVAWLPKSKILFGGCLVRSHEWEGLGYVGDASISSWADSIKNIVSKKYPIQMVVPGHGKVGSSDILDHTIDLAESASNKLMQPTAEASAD

VIM-2 [2] = biological target: T2, VIM-2 (Escherichia coli, UniProt Q5U7L7); assay: Enzymatic metallo-β-lactamase assay on purified VIM-2; type: biochemical
Protocol: (§1) A few inhibitors were tested up to 1600 μM to ensure nearly complete inhibition. Solutions of 100 μL consisting of buffer, purified enzyme (1 nM for GIM-1 and VIM-2, 5 nM for NDM-1), inhibitor and reporter substrate nitrocefin (15 μM for VIM-2, 2 μM for GIM-1) or imipenem (30 μM for NDM-1) were incubated in triplicates on a 96 well plate for 5 min at 25 °C. Buffer solution consisted of 50 mM HEPES pH 7.2, 50 μM ZnSO4 and 0.4 mg/ml bovine serum albumine. Inhibitors were dissolved in DMSO but diluted to assure <2% DMSO in measured assay. Absorbance was measured at 482 nm (nitrocefin) and 300 nm (imipenem) on a SpectraMax M4 spectrophotometer. The initial velocity at each inhibitor concentration was analyzed in GraphPad Prism v9.3.1 and fitted to dose-response curves by non-linear regression (log [inhibitor] vs response) used to calculate IC50 (Supplementary Tables S2–5).

15N-labelled VIM-2 = biological target: T3, 15N-labelled VIM-2 (Escherichia coli, UniProt Q5U7L7); assay: 1H,15N-HSQC titration of VIM-2; type: binding; conditions: 10 equivalents of compound, 600 MHz, pH 7.0, 25 °C
T3 construct: made in house
Protocol: The ^1H, ^15N-HSQC spectra for the titration experiments were recorded on a Bruker Avance Neo 600 MHz spectrometer equipped with a 5 mm TCI cryogenic probe at 25 °C. The U-[^15N]-labeled VIM-2 was prepared in a buffer of 20 mM KPO4, 0.1 mM ZnCl2, at pH 7.0, containing 85% H2O/15% D2O at a concentration of 0.25 mM. The U-[^15N]-labeled NDM-1 was used in a buffer of 20 mM HEPES, 0.1 mM ZnCl2, at pH 7.0, containing 85% H2O/15% D2O at a concentration of 0.25 mM. The ligands 5d, 5g, 5i, 5j (for VIM-2 titrations) and 5 f (for NDM-1 titration) were dissolved in the same buffer as the corresponding enzymes. Spectra were recorded using solvent suppression, 1024 points in f1, 16 transients, 512 increments in f2 and a relaxation delay of 0.2 s. The titrations were carried out with 0, 0.25, 0.50, 1.00, 1.50, 2.25, 3.00, 4.00, 5.00, 7.00, 10.0 equivalents of the inhibitors.
Figure S47. Superimposition of the 1H,15N-HSQC spectrum (600 MHz, pH 7.0, 25 °C) of
VIM-2 in the absence (blue) and in the presence (green) of 10 molar equivalent of compound
5j. Buffer: 20 mM KPO4, 0.1 mM ZnCl2, with 15% D2O.
Chemical shift perturbation values (CSP, ΔδNH) were calculated as the weighted average of
the chemical shift changes in f1 (ΔδN) and f2 (ΔδH) dimensions using the following equation 8:
∆δ = √∆δ 2 + ( N ); R = 6.5
Figure S48. Linear regression of the chemical shift perturbations of compound 5g (IC50 =
12 μM) as a function of the chemical shift perturbations of compounds 5c (yellow circle), 5d
(grey square), 5i (green triangle) and 5j (blue circle) for VIM-2. The data of the studied […]

MTT cytotoxicity assay = type: cell-based; conditions: human, HepG2 cells
Protocol: Cytotoxic activity of the compounds was measured through the MTT colorimetric assay as previously described[60] using the Colorimetric (MTT) Kit for Cell Survival and Proliferation (Merck/Millipore; Darmstadt, Germany). HepG2 cells (human hepatocellular carcinoma cell line) were kept in penicillin/streptomycin-free medium overnight and then they were treated with the compounds for 24 h. Subsequently, the MTT reagent was added to the cells and after 3 h of incubation, MTT-derived formazan crystals were solubilized in acidified isopropanol (0.1 mL isopropanol with 0.04 N HCl). Absorbance was measured with multiscan spectrophotometer (Thermo Fisher Scientific) at 530 nm test and 630 nm reference wavelengths. Cell viability was expressed as the percentage of viable, untreated cells. CC50 values were determined with GraphPad Prism software (v9.3.1) and adjusted to dose-response curves by non-linear regression (Supplementary Table S7).
8. Cytotoxocity against HepG2 cells
Table S7. CC50 values and viability curves of metallo-β-lactamase inhibitors tested on HepG2 […]
cells. […]
range. Data are shown as % via bility values ± SEM (n=4). Calculations were done using […]
Inhibitors CC50 (μM) HepG2 […]

GIM-1 [3] = biological target: T1, GIM-1; assay: Enzymatic metallo-β-lactamase assay on purified GIM-1; type: biochemical
Protocol: as §1

VIM-2 [4] = biological target: T2, VIM-2; assay: Enzyme steady state kinetic studies (inhibitor 5g and VIM-2); type: biochemical; conditions: for Ki / Vmax: nitrocefin
Protocol: Enzyme steady state kinetic studies were performed to determine the mechanism of inhibition using inhibitor 5g and VIM-2 (Section 7, Supplementary Information). […] Assays were conducted in triplicates on a 96 well plate. Absorbance was measured at 482 nm using a SpectraMax 190 plate reader. Solutions of 300 μL consisting of buffer, purified enzyme (0.3 nM VIM-2), inhibitor 5g and reporter substrate nitrocefin with final 2.5% DMSO were incubated in triplicates on a 96 well plate for 5 min at 30 °C. Buffer solution consisted of 50 mM HEPES pH 7.2, 50 μM ZnSO4 and 0.4 mg/ml bovine serum albumin.
7. Enzyme kinetic studies
Enzyme steady state kinetic studies were performed to determine the mechanism of inhibition using inhibitor 5g and VIM-2. Km’, Ki and Vmax values were determined (Table S6).
For data analysis, SimFit software was used to fit the initial reaction velocities (v₀) to a Michaelis-Menten (1:1) model (Figure S40a). […]
Table S6. Kinetic parameters (Km’, Ki and vmax values) of inhibitor 5g against VIM-2 using nitrocefin as reporter substrate.
Figure S40. a, Michaelis-Menten fitting of the substrate concentration dependence of initial reaction velocities. b, Double reciprocal plot of the data in a, for VIM-2 in the absence and presence of inhibitor 5g at two concentrations (36 μM and 72 μM) using nitrocefin as substrate. [I] is the concentration of inhibitor 5g.

With `O=C(NC(c1ccccc1O)P(=O)(O)O)c1scc2c1CCCC2` (stereo not drawn) [5g] the Ki (GIM-1 [1]) was 113 ± 66 µM, the Ki (VIM-2 [2]; approximated from Dixon plots (1/v vs [I]) at one constant substrate concentration, ± SE, read-out: Estimated inhibition constant Ki VIM-2) was 43 ± 15 µM and the “logIC50 VIM-2” value (VIM-2 [2]; log of IC50, ± SEM of logIC50) was 1.06 ± 0.04 μM. For the same compound, the IC50 (VIM-2 [2]; purified enzyme 1 nM, nitrocefin 15 μM, pH 7.2, 25 °C) was 12 µM, the “Mean chemical shift perturbation, VIM-2” value (15N-labelled VIM-2) was 0.04 ppm and the CC50 at 24 h (MTT cytotoxicity assay; HepG2, MTT, read-out: CC50 (in viability curve)) was 1400 µM. The CC50 at 24 h (MTT cytotoxicity assay; MTT, 0.0025 mM - 1mM concentration range, read-out: Cytotoxicity CC50 HepG2) was 1420 µM, the “logIC50 GIM-1” value (GIM-1 [3]; log of IC50, ± SEM of logIC50) was 1.33 ± 0.11 μM and the IC50 (GIM-1 [3]; purified enzyme 1 nM, nitrocefin 2 μM, pH 7.2, 25 °C) was 21 µM. It also gave a Ki (VIM-2 [4]; Michaelis-Menten fit and Lineweaver-Burk plot, 30 °C) of 36 ± 3.3 µM, a Ki (VIM-2 [4]; [I] 36 μM) of 31.3 µM and a Ki (VIM-2 [4]; [I] 72 μM) of 40.7 µM. The inhibition mode (VIM-2 [4]; Michaelis-Menten model and Lineweaver-Burk plot) was “competitive inhibition”, the Vmax (VIM-2 [4]; [I] 36 μM) was 50.0 ΔA/min and the Vmax (VIM-2 [4]; [I] 72 μM) was 47.0 ΔA/min.
